This note sets out measurements from BindingDB's records for doi:10.1016/S0960-894X(01)80395-4 (1994).

For this experiment, the target named is Arachidonate 5-lipoxygenase (Cavia porcellus). Description: Inhibitory activity against 5-lipoxygenase in guinea pig leukocytes was determined.

Molecule `Cc1ccnc(N2CCN(CCC3Cn4c(-c5cc(C)c(O)c(C)c5)c(C)c5cc(O)cc(c54)O3)CC2)c1` (configuration not stated) [5-(4-Hydroxy-3,5-dimethyl-phenyl)-6-methyl-2-{2-[4-(4-methyl-pyridin-2-yl)-piperazin-1-yl]-ethyl}-2,3-dihydro-[1,4]oxazino[2,3,4-hi]indol-8-ol] had an IC50 of 0.18 µM.
Turning to `COc1ccc2[nH]c(-c3cc(C)c(O)c(C)c3)c(C)c2c1` [TZI-41127], the half-maximal inhibitory concentration (IC50) was 0.24 µM.
